Test systems include ACHN; COLO 205; EKVX; HCT-15; HL-60; K562; KM12; M14; Malme-3M; NCI-H522; OVCAR-4; OVCAR-8; PC-3; SF-268; SF-295; SK-MEL-28; SK-MEL-5; SK-OV-3; SNB-75; SW-620.
Assay in all cases: growth of human tumour cells (NCI), 48 h

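Cultured in 96-well plates, cells were exposed to test compound for 48 hours across five concentrations. Abbreviation: GI50, concentration required for 50% inhibition of growth.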 Activity calls are given as the source filed them. Rule as the data show it: active = GI50 up to about 1.1 µM and inactive = higher.

Turning to `O=C(O)c1cccc(S(=O)(=O)NCCO)c1`, the GI50 with ACHN was > 100 µM (inactive); in the experiment on COLO 205, > 100 µM (inactive); in the experiment on EKVX, > 100 µM (inactive); in the experiment with HCT-15, above 100 µM; in the experiment on HL-60, > 100 µM (inactive); in the experiment with K562, > 100 µM (inactive). The GI50 with KM12, in the experiment on M14, with Malme-3M, in the experiment on NCI-H522, with OVCAR-4 and with OVCAR-8 was > 100 µM (inactive) in each case. The GI50 with PC-3, with SF-268, in the experiment with SF-295, in the experiment with SK-MEL-28, in the experiment on SK-MEL-5 and in the experiment with SK-OV-3 was > 100 µM (inactive) each time. Also, the GI50 with SNB-75 and with SW-620 was > 100 µM (inactive) each time.

For the molecule `CCN1CC2(C)CCC(OC)C34C5CC6CCC(O)(C5C(=O)O6)C(C(O)C23)C14` (stereo not given), the GI50 in the experiment on ACHN was > 100 µM (inactive); in the experiment on COLO 205 it was > 100 µM (inactive); in the experiment on EKVX, > 100 µM (inactive); in the experiment on HCT-15, above 100 µM; in the experiment on HL-60 it was > 100 µM (inactive); in the experiment on K562, > 100 µM (inactive). Besides, the GI50 with KM12, in the experiment with M14, with Malme-3M, with NCI-H522, in the experiment on OVCAR-4 and with OVCAR-8 was > 100 µM (inactive) each time. The GI50 in the experiment with PC-3, in the experiment on SF-268, in the experiment with SF-295, in the experiment with SK-MEL-28, with SK-MEL-5 and in the experiment with SK-OV-3 was > 100 µM (inactive) each time. The GI50 with SNB-75 and in the experiment on SW-620 was > 100 µM (inactive) throughout.

On to `CC(C)NC(=O)OCc1c(COC(=O)NC(C)C)c(-c2ccc[n+](COC(=O)C(C)(C)C)c2)n2c1CCC2`, for which the GI50 with ACHN was 38.8 µM (inactive); in the experiment on COLO 205, > 93.5 µM (inactive); with EKVX it was > 100 µM (inactive); in the experiment on HCT-15 it was above 100 µM; in the experiment on HL-60, > 53.2 µM (inactive); in the experiment on K562, 99.8 µM (inactive). The GI50 with KM12 was > 100 µM (inactive); with M14 it was > 84.1 µM (inactive); with Malme-3M, > 100 µM (inactive); in the experiment with NCI-H522 it was 35 µM (inactive); with OVCAR-4, > 79.3 µM (inactive); in the experiment with OVCAR-8, > 76.6 µM (inactive). The GI50 was > 86.7 µM (inactive) in the experiment on PC-3; 57.7 µM (inactive) with SF-268; 65 µM (inactive) in the experiment with SF-295; > 100 µM (inactive) in the experiment on SK-MEL-28; > 95.5 µM (inactive) with SK-MEL-5; > 74.1 µM (inactive) in the experiment with SK-OV-3. Moreover, the GI50 in the experiment with SNB-75 is > 89.1 µM (inactive); in the experiment with SW-620, > 100 µM (inactive).

Take `O=C(O)CCSCc1ccc(I)cc1`: the GI50 is > 100 µM (inactive) in the experiment with ACHN; > 100 µM (inactive) in the experiment with COLO 205; > 100 µM (inactive) with EKVX; above 100 µM in the experiment with HCT-15; > 100 µM (inactive) in the experiment with HL-60; > 100 µM (inactive) in the experiment with K562. The GI50 in the experiment on KM12, with M14, in the experiment with Malme-3M, in the experiment on NCI-H522, in the experiment on OVCAR-4 and with OVCAR-8 was > 100 µM (inactive) in each case. Besides, the GI50 with PC-3, in the experiment with SF-268, with SF-295, in the experiment with SK-MEL-28, in the experiment with SK-MEL-5 and in the experiment on SK-OV-3 was > 100 µM (inactive) throughout. Moreover, the GI50 in the experiment with SNB-75 was 72.4 µM (inactive); with SW-620, > 100 µM (inactive).

These data come from ChEMBL document CHEMBL1201862, “PubChem BioAssay data set” (2004).
